Data reported in ChEMBL document CHEMBL1909046, “DrugMatrix in vitro pharmacology data”.

Columns and labels:
[1] = target: Cytochrome P450 2C9 (Homo sapiens, UniProt P11712); conditions: bti-tn-5b1-4
[2] = target: T1, Nitric oxide synthase, inducible (Mus musculus, UniProt P29477); set-up: species or system Escherichia coli;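 further: inhibition of iNOS enzyme activity measured with L-arginine as substrate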
T1 sequence (P29477 whole entry): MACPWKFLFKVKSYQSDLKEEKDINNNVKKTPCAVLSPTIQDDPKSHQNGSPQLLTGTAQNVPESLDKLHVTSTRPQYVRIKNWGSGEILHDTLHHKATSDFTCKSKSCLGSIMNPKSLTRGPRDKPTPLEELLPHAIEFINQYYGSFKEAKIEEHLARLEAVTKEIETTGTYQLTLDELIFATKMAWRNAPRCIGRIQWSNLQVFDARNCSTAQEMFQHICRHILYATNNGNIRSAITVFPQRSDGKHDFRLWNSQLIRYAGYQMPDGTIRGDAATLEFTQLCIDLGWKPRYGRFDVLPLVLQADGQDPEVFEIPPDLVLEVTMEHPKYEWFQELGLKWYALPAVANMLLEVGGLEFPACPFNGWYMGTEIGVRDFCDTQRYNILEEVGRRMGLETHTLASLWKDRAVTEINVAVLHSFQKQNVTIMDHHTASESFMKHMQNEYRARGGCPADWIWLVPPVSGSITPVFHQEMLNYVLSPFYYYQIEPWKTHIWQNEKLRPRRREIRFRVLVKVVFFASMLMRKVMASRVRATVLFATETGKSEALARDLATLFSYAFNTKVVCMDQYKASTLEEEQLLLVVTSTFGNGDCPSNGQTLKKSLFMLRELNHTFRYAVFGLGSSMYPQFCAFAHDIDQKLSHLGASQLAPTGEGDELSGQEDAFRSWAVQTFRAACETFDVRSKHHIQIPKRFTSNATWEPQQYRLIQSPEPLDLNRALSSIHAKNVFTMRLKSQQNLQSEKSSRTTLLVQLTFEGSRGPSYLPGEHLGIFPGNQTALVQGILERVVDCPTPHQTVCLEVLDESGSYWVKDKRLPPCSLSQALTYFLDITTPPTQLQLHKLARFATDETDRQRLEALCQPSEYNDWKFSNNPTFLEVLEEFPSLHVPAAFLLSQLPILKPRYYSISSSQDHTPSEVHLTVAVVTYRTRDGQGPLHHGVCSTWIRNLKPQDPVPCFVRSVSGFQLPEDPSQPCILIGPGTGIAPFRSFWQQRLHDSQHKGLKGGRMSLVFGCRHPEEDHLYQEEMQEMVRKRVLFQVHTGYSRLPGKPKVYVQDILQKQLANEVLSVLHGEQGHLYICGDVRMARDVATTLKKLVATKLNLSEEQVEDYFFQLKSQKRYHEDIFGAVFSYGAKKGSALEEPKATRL

[3] = target: T2, Type-2 angiotensin II receptor (Homo sapiens, UniProt P50052); format: cell-based; conditions: cho-k1
T2 sequence (P50052 whole entry): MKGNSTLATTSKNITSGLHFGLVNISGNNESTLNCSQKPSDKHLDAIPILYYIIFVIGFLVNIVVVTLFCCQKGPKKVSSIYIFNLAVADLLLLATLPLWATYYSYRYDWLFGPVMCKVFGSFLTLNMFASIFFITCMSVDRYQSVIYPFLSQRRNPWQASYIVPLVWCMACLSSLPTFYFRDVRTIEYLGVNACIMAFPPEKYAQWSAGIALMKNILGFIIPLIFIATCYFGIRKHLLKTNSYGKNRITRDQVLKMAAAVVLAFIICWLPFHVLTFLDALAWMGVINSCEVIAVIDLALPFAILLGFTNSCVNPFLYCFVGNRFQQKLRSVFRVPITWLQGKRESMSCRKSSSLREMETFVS

[4] = target: T3, Estrogen receptor (Homo sapiens, UniProt P03372); conditions: sf9
T3 sequence (P03372 whole entry): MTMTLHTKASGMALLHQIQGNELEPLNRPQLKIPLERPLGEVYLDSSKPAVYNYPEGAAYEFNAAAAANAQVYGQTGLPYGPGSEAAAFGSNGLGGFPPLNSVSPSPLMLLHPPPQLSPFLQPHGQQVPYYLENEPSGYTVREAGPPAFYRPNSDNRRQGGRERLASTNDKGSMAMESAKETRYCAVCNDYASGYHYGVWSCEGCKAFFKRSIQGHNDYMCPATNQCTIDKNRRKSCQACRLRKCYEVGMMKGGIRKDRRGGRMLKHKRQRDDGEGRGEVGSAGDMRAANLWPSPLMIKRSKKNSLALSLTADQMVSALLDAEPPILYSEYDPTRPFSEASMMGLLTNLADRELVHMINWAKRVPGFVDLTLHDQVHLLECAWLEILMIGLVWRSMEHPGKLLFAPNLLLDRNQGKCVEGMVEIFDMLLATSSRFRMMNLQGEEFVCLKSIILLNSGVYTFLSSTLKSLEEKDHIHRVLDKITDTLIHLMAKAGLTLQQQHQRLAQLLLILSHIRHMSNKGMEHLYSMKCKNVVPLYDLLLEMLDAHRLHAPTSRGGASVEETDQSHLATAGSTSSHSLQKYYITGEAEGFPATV

[5] = target: T4, Cytochrome P450 1A2 (Homo sapiens, UniProt P05177); conditions: bti-tn-5b1-4
T4 sequence (P05177 whole entry): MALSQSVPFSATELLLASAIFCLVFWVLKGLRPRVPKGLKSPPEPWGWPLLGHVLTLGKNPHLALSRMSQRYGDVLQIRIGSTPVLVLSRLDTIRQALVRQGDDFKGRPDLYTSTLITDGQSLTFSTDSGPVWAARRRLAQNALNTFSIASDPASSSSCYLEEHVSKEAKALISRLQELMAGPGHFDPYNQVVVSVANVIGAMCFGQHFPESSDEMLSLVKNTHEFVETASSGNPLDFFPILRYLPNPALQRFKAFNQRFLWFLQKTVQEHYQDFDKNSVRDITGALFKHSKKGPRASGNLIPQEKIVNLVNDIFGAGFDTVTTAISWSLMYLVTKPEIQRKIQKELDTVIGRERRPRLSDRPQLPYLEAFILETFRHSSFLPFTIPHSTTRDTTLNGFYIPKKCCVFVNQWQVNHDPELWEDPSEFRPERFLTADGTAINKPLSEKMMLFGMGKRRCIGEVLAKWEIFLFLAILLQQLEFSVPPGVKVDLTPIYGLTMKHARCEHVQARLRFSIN

[6] = target: Cytochrome P450 2D6 (Homo sapiens, UniProt P10635); conditions: bti-tn-5b1-4
[7] = target: Cytochrome P450 2C19 (Homo sapiens, UniProt P33261); conditions: bti-tn-5b1-4
Further: in other assays of this panel Not Active means under 50% inhibition at 10 µM.

Sequence of Cytochrome P450 2C19 (P33261 whole entry): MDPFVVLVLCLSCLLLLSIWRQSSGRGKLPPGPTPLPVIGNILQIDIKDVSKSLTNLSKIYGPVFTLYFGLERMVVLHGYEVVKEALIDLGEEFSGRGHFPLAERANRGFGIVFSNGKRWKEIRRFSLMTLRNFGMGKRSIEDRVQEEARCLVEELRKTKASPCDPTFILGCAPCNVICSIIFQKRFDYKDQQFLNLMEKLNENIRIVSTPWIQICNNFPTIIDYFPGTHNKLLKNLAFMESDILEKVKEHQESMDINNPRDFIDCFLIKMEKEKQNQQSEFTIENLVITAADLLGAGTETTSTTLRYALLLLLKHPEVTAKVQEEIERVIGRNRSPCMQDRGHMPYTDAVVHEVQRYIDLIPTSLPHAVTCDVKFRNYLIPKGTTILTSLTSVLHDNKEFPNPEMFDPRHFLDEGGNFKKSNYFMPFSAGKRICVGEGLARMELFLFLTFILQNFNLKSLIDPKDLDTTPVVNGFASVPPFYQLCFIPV
Sequence of Cytochrome P450 2D6 (P10635 whole entry): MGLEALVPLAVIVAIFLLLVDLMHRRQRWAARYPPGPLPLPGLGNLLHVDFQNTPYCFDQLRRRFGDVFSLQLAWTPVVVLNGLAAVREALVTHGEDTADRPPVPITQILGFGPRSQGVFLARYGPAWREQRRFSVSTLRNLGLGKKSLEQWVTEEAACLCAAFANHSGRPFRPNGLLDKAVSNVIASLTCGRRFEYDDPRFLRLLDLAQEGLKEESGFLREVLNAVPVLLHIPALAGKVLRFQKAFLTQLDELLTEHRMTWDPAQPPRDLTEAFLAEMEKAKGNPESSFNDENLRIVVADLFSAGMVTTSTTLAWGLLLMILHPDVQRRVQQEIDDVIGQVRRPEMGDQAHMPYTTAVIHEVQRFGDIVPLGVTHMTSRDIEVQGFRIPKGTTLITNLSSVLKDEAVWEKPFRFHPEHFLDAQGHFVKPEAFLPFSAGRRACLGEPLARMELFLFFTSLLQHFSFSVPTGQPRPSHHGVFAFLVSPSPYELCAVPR
Sequence of Cytochrome P450 2C9 (P11712 whole entry): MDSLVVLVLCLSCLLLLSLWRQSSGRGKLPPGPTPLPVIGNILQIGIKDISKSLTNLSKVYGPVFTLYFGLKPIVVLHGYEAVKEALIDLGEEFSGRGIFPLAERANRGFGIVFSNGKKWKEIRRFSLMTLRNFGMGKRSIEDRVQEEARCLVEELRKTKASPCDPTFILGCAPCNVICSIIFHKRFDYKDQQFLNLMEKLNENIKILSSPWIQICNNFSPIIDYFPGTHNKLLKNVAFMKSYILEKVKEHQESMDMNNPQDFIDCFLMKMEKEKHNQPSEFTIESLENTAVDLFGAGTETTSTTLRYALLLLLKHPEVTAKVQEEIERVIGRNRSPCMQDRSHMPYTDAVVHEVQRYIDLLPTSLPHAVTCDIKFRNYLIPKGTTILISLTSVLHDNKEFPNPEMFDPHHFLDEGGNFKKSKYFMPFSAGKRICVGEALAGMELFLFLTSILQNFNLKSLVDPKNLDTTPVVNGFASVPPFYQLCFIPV

CSc1ccc2c(c1)N(CCC1CCCCN1C)c1ccccc1S2 (centres undefined) [THIORIDAZINE]
Not Active: IC50 [1] | Ki [1] | IC50 [2] | IC50 [3] | IC50 [4]

Nc1ccc(S(=O)(=O)Nc2ccnn2-c2ccccc2)cc1 [SULFAPHENAZOLE]
Not Active: IC50 [5] | Ki [5] | IC50 [6] | Ki [6] | IC50 [7] | Ki [7] | IC50 [2] | IC50 [3] | IC50 [4]

COC(=O)C1=C(C)NC(C)=C(C(=O)OC)C1c1ccccc1[N+](=O)[O-] [NIFEDIPINE]
Not Active: IC50 [2] | IC50 [3] | IC50 [4]

CN1CCN2c3ccccc3Cc3ccccc3C2C1 (centres undefined) [MIANSERIN]
Not Active: IC50 [6] | Ki [6] | IC50 [1] | Ki [1] | IC50 [7] | Ki [7] | IC50 [2] | IC50 [3] | IC50 [4]

c1ccc2[nH]c(-c3cscn3)nc2c1 [THIABENDAZOLE]
Not Active: IC50 [6] | Ki [6] | IC50 [1] | Ki [1] | IC50 [7] | Ki [7] | IC50 [2] | IC50 [3] | IC50 [4]

Clc1ccccc1C(c1ccccc1)(c1ccccc1)n1ccnc1 [CLOTRIMAZOLE]
Not Active: IC50 [5] | Ki [5] | IC50 [6] | Ki [6] | IC50 [2] | IC50 [3] | IC50 [4]

CC(C)(C)NCC(O)c1cc(O)cc(O)c1 (centres undefined) [TERBUTALINE]
Not Active: IC50 [5] | Ki [5] | IC50 [6] | Ki [6] | IC50 [1] | Ki [1] | IC50 [7] | Ki [7] | IC50 [2] | IC50 [3]

CN[C@H](CC(C)C)C(=O)N[C@H]1C(=O)N[C@@H](CC(N)=O)C(=O)N[C@H]2C(=O)N[C@H]3C(=O)N[C@H](C(=O)N[C@H](C(=O)O)c4cc(O)cc(O)c4-c4cc3ccc4O)[C@H](O)c3ccc(c(Cl)c3)Oc3cc2cc(c3O[C@@H]2O[C@H](CO)[C@@H](O)[C@H](O)[C@H]2O[C@H]2C[C@](C)(N)[C@H](O)[C@H](C)O2)Oc2ccc(cc2Cl)[C@H]1O [VANCOMYCIN]
Not Active: IC50 [5] | Ki [5] | IC50 [6] | Ki [6] | IC50 [7] | Ki [7] | IC50 [2] | IC50 [3] | IC50 [4]

CC(=O)S[C@@H]1CC2=CC(=O)CC[C@]2(C)[C@H]2CC[C@@]3(C)[C@@H](CC[C@@]34CCC(=O)O4)[C@H]12 [SPIRONOLACTONE]
Not Active: IC50 [2] | IC50 [3] | IC50 [4]

CC(CCc1ccccc1)NCC(O)c1ccc(O)c(C(N)=O)c1 (centres undefined) [LABETALOL]
Not Active: IC50 [5] | Ki [5] | IC50 [1] | Ki [1] | IC50 [2] | IC50 [3] | IC50 [4]

COC(=O)[C@@H]1[C@H]2C[C@H]3c4[nH]c5ccccc5c4CCN3C[C@@H]2CC[C@@H]1O [YOHIMBINE]
Not Active: IC50 [2] | IC50 [3] | IC50 [4]

COc1ccc(CCN2CCC(Nc3nc4ccccc4n3Cc3ccc(F)cc3)CC2)cc1 [ASTEMIZOLE]
Not Active: IC50 [5] | Ki [5] | IC50 [6] | Ki [6] | IC50 [1] | Ki [1] | IC50 [7] | Ki [7] | IC50 [2] | IC50 [3]

COc1ccc(C(CN(C)C)C2(O)CCCCC2)cc1 (centres undefined) [VENLAFAXINE]
Not Active: IC50 [5] | Ki [5] | IC50 [6] | Ki [6] | IC50 [1] | Ki [1] | IC50 [7] | Ki [7] | IC50 [2] | IC50 [3]
